Patent US20070191397A1, “Fungicidal mixtures based on oxime ether derivatives” (priority 2004, published 2007)

Experiments:
[1] = test system: Puccinia recondita; assay: Curative action against brown rust of wheat caused by Puccinia recondita; assay type: in vivo; details: wheat cultivar Kanzler, 7 days
Experimental: (§1) The active compounds, separately or jointly, were prepared as a stock solution with 0.25% by weight of active compound in acetone or DMSO. 1% by weight of the emulsifier Uniperol® EL (wetting agent having emulsifying and dispersing action based on ethoxylated alkylphenols) was added to this solution, and the solution was diluted with water to the desired concentration.
(§2) Evaluation was carried out by determining the infected leaf areas in percent. These percentages were converted into efficacies. The efficacy (E) is calculated as follows using Abbot's formula: E=(1−α/β)·100 α corresponds to the fungicidal infection of the treated plants in % and β corresponds to the fungicidal infection of the untreated (control) plants in %
(§3) An efficacy of 0 means that the infection level of the treated plants corresponds to that of the untreated control plants; an efficacy of 100 means that the treated plants were not infected.
(§4) The expected efficacies of the mixtures of active compounds are determined using Colby's formula [R.S. Colby, Weeds 15, 20-22 (1967)] and compared with the observed efficacies. Colby's formula: E=x+y−x·y/100 E expected efficacy, expressed in % of the untreated control, when using the mixture of the active compounds A and B at the concentrations a and b x efficacy, expressed in % of the untreated control, when using active compound A at the concentration a y efficacy, expressed in % of the untreated control, when using active compound B at the concentration b
Leaves of wheat seedlings of the cultivar “Kanzler”, grown in pots, were dusted with spores of brown rust (Puccinia recondita). The pots were then placed in the chamber with high atmospheric humidity (90-95%), at 20-22° C., for 24 hours. During this time the spores germinated and the germinal tubes penetrated into the leaf tissue. The next day, the infected plants were sprayed to runoff point with an aqueous suspension having the concentration of active compounds stated below. After the spray coating had dried on, the test plants were cultivated in a greenhouse at 20-22° C. and 65-70% relative atmospheric humidity for 7 days. Thereafter, the extent of the rust fungus development on the leaves was determined.

[2] = test system: Erysiphe [syn. Blumeria] graminis form a specialis tritici; assay: Activity against mildew of wheat caused by Erysiphe [syn. Blumeria] graminis forma specialis tritici; assay type: in vivo
Experimental: as §1, §2, §3, §4
Leaves of wheat seedlings of the cultivar “Kanzler” grown in pots, were sprayed to runoff point with an aqueous suspension having the concentration of active compounds stated below. 24 hours after the spray coating had dried on, dusted with spores of mildew of wheat (Erysiphe [syn. Blumeria] graminis form a specialis tritici). The test plants were then placed in a greenhouse at 20-24° C. and 60-90% relative atmospheric humidity. After 7 days, the extent of the mildew development was determined visually in % infection of the entire leaf area.

| Structure (SMILES) | Efficacy in % of the untreated control ([1]; 1 ppm in the spray liquor) | Efficacy in % of the untreated control ([1]; 4 ppm in the spray liquor) | Efficacy in % of the untreated control ([2]; 0.25 ppm in the spray liquor, wheat cultivar Kanzler, sprayed 24 h before inoculation, 7 days) | Efficacy in % of the untreated control ([2]; 1 ppm in the spray liquor, wheat cultivar Kanzler, sprayed 24 h before inoculation, 7 days) | Efficacy in % of the untreated control ([2]; 4 ppm in the spray liquor, wheat cultivar Kanzler, sprayed 24 h before inoculation, 7 days) | Efficacy in % of the untreated control ([2]; 0.25 ppm) | Efficacy in % of the untreated control ([1]; 0.06 ppm in the spray liquor) | Efficacy in % of the untreated control ([1]; 0.25 ppm in the spray liquor) |
| --- | --- | --- | --- | --- | --- | --- | --- | --- |
| CC1CCN(c2c(-c3c(F)cc(F)cc3F)c(Cl)nc3ncnn23)CC1 [I, 5-chloro-7-(4-methylpiperidin-1-yl)-6-(2,4,6-trifluoro-phenyl)-[1,2,4]triazolo[1,5-a]pyrimidine] | 0% | 89% | 0% | 9% | 60% | – | – | – |
| O=C(Cc1ccccc1)N/C(=N\OCC1CC1)c1c(C(F)(F)F)ccc(F)c1F [II.1] | – | – | – | – | – | 70% | – | – |
| O=C(Cc1ccccc1)N/C(=N\OCC1CC1)c1c(OC(F)F)ccc(F)c1F [II.14] | 0% | – | – | – | – | – | 0% | 0% |
